From the CheMixHub viscosity set
“And” between values parts separate entries of the source, which are not always exact repeats. Equal values may be shown once.

Experiment: xn = mol fraction of the nth substance listed

CC(N)=O + O
101 kPa
Conditions | viscosity [mPa·s]
293.15 K, x1 = 0.0438 | 1.015
293.15 K, x1 = 0.0791 | 1.178
293.15 K, x1 = 0.1282 | 1.416
295.65 K, x1 = 0.02282 | 1.222
295.65 K, x1 = 0.03616 | 1.155
295.65 K, x1 = 0.03629 | 1.149
295.65 K, x1 = 0.0429 | 1.262
295.65 K, x1 = 0.07191 | 1.716
295.65 K, x1 = 0.07575 | 1.47
298.15 K, x1 = 0.0024 | 0.89
298.15 K, x1 = 0.0185 | 0.991
298.15 K, x1 = 0.06152 | 1.232
298.15 K, x1 = 0.09656 | 1.458
298.15 K, x1 = 0.1531 | 1.875
298.15 K, x1 = 0.4073 | 4.442
303 K, x1 = 0.0363 | 1.149
303 K, x1 = 0.0438 | 1.015
303 K, x1 = 0.0791 | 1.178
303 K, x1 = 0.0928 | 1.416

CN(C)CCCO + O
viscosity [mPa·s], 101 kPa
Conditions | 303.15 K | 308.15 K | 313.15 K | 318.15 K | 323.15 K
x1 = 0.0478 | 2.218 | 1.896 | 1.635 | 1.432 | 1.262
x1 = 0.0968 | 4.633 | 3.796 | 3.147 | 2.654 | 2.264
x1 = 0.1512 | 7.882 | 6.285 | 5.078 | 4.181 | 3.481
x1 = 0.2009 | – | 8.49 | 6.753 | 5.485 | 4.497
x1 = 0.2997 | 14.97 | 11.59 | 9.103 | 7.288 | 5.903
x1 = 0.3537 | – | 12.35 | 9.663 | 7.732 | 6.247
x1 = 0.4037 | 16.02 | 12.42 | 9.761 | 7.792 | 6.34
x1 = 0.4574 | 15.39 | 12 | 9.458 | 7.631 | 6.19
x1 = 0.499 | 14.63 | 11.46 | 9.077 | 7.329 | 5.974
x1 = 0.6012 | 12.08 | 9.654 | 7.784 | 6.38 | 5.271
x1 = 0.7274 | 9.064 | 7.42 | 6.133 | 5.114 | 4.304
x1 = 0.8081 | 7.504 | 6.239 | 5.224 | 4.417 | 3.765
x1 = 0.9112 | 5.925 | 5.02 | 4.261 | 3.658 | 3.168

C[NH+](C)CCO.O=C([O-])CC(=O)O + O
101 kPa, x2 = 0.88
Conditions | viscosity [mPa·s]
298 K | 9.67
313 K | 6.09

NC(CO)C(=O)[O-].[K+] (centres undefined) + O
viscosity [mPa·s], 100 kPa
Conditions | x1 = 0.009 | x1 = 0.019 | x1 = 0.029 | x1 = 0.039 | x1 = 0.049 | x1 = 0.06
303.15 K | 0.9271 | 1.088 | 1.308 | 1.575 | 1.929 | 2.448
308.15 K | 0.8325 | 0.9764 | 1.175 | 1.412 | 1.719 | 2.172
313.15 K | 0.7628 | 0.8877 | 1.067 | 1.279 | 1.55 | 1.949
318.15 K | 0.696 | 0.8049 | 0.9686 | 1.159 | 1.398 | 1.752
323.15 K | 0.6347 | 0.74 | 0.8896 | 1.061 | 1.275 | 1.59

NCCNCCO.O=S(=O)([N-]S(=O)(=O)C(F)(F)F)C(F)(F)F.[Li+] + O
323.15 K, 101 kPa
Conditions | viscosity [mPa·s]
x1 = 0.0304 | 1.63
x1 = 0.06 | 3.61
x1 = 0.0997 | 7.57
x1 = 0.2003 | 27.72
x1 = 0.3009 | 65.11
x1 = 0.3955 | 114.4
x1 = 0.4975 | 184.4
x1 = 0.599 | 272.2
x1 = 0.7014 | 372.3
x1 = 0.8015 | 486.8
x1 = 0.8978 | 605.3

O=C([O-])CC(O)(CC(=O)[O-])C(=O)[O-].[Li+].[Li+].[Li+] + O
viscosity [mPa·s], 101 kPa
Conditions | 298.15 K | 308.15 K | 318.15 K
x1 = 0.004 | 1.118 | 0.9013 | 0.7487
x1 = 0.007 | 1.39 | 1.112 | 0.9146
x1 = 0.01 | 1.784 | 1.415 | 1.155

O=C[C@H](O)[C@@H](O)[C@@H](O)CO + O
viscosity, 101 kPa
Conditions | 293.15 K | 298.15 K | 303.15 K | 308.15 K | 313.15 K | 318.15 K
x1 = 0.0031 | 1.059 mPa·s | – | 0.8425 mPa·s | 0.7555 mPa·s | 0.6857 mPa·s | 0.6277 mPa·s
x1 = 0.006 | 1.122 mPa·s and 1.122 mPa·s (2×) | 0.9982 mPa·s and 0.9982 mPa·s (2×) | 0.8927 mPa·s and 0.8927 mPa·s (2×) | 0.7947 mPa·s and 0.7947 mPa·s and 0.7947 mPa·s | 0.7187 mPa·s and 0.7187 mPa·s (2×) | 0.6585 mPa·s and 0.6585 mPa·s and 0.6585 mPa·s
x1 = 0.0063 | 1.122 mPa·s | 0.9982 mPa·s | 0.8927 mPa·s | 0.7947 mPa·s | 0.7187 mPa·s | 0.6585 mPa·s
x1 = 0.013 | 1.232 mPa·s and 1.232 mPa·s (2×) | – | 0.9886 mPa·s and 0.9886 mPa·s (2×) | 0.8863 mPa·s and 0.8863 mPa·s (2×) | 0.7996 mPa·s and 0.7996 mPa·s (2×) | 0.7229 mPa·s and 0.7229 mPa·s and 0.7229 mPa·s

O=S(=O)(O)CC(O)CN1CCOCC1 (centres undefined) + O
viscosity [mPa·s], 101.3 kPa
Conditions | x1 = 0.00371 | x1 = 0.007201 | x1 = 0.009661 | x1 = 0.01079 | x1 = 0.01403 | x1 = 0.01784
298.15 K | 0.942 | 1.033 | 1.078 | 1.117 | 1.197 | 1.303
308.15 K | 0.761 | 0.833 | 0.871 | 0.901 | 0.966 | 1.051
318.15 K | 0.631 | 0.691 | 0.721 | 0.746 | 0.798 | 0.866
